“Also recorded” adds a separate entry of the source.
Assays:
[1] = tested on: full-thickness skin incision wound; test: Healing test, full-thickness skin incision wound; assay type: in vivo, rat; settings: 1.25% by mass on substrate, changed daily, day 1 to 4 of observation, compared with control group and silver sulfate group
Procedure: A substrate (Jintan Medicare sterile pad T, manufactured by Morishita Jintan Co., Ltd.) was prepared, and each of filtered test solutions (protamine hydrochloride, protamine sulfate and silver sulfate) was homogeneously applied to each substrate to obtain a solid content of the active ingredient of 1.25% by mass. In a flank region on either side of an eight-week-old BrlHan: WIST@Jcl (GALAS) rat (four rats used in each test group), a full-thickness skin incision wound with a size of 2.5 cm×2.5 cm was created.
The substrate and the dressing were changed once every day, the incision wound was photographed with a digital camera at the time of the change, and then, an area of the wound was obtained by using image analysis software (Image J, National Institutes of Health, USA). Assuming that the area of the wound on the day of creating the wound (day 0 of observation) was 100%, an area ratio (%) of the wound on each observation date was obtained.

[2] = tested on: Staphylococcus aureus; test: Examination of sterilization treatment: antimicrobial activity test after EOG or γ-ray sterilization; assay type: cell-based; settings: 1.25% by mass
Procedure: A protamine hydrochloride powder and a protamine sulfate powder were respectively enclosed in sterilization bags (roll bag for IDS, manufactured by Hogy Medical Co., Ltd.). For a control group (not treated), the sterilization treatment was not performed, and the rest was subjected to the EOG sterilization (EOG concentration: 20%, sterilization time: 4 hours, temperature: 55° C.) and the γ-ray sterilization (30 kGy). The standard cloth was cut into an appropriate size with a mass of 0.40 g±0.05 g. Each of the test powders (protamine hydrochloride and protamine sulfate) was dissolved in sterile water, separately, and then the resultant was filtered. […] A Staphylococcus aureus suspension was inoculated by 0.2 mL each in separate several portions on each test piece. Immediately after the inoculation, 20 mL of a saline for washing out was added to some vials for washing out Staphylococcus aureus cells, and then a viable cell count was measured. The rest of the vials without washing-out was cultured at 37° C.±2° C. for 18 to 24 hours. After the cultivation, 20 mL of a saline for washing out was added to each vial for washing out Staphylococcus aureus cells, and then a viable cell count was measured.

[3] = tested on: Staphylococcus aureus; test: Antimicrobial activity test (JIS L 1902:2015 / ISO 20743) on standard cloth; assay type: cell-based; settings: cultured 37° C. for 18 to 24 hours
Excerpt: The antimicrobial activity of the protamine component can be evaluated based on an antimicrobial activity value described in “JIS L 1902:2015 Textiles—Determination of antibacterial activity and efficacy of textile products” (ISO 20743), and when a target material has an antimicrobial activity value of 2.0 or more, it can be determined to have the antimicrobial activity.
A standard cloth was cut into an appropriate size with a mass of 0.40 g±0.05 g. Sterile water (a control sample) and each of the test sample solutions (protamine hydrochloride: manufactured by Maruha Nichiro Corporation, protamine sulfate: manufactured by Maruha Nichiro Corporation, silver sulfate: manufactured by Wako Pure Chemical Industries Ltd.) were prepared and filtered, separately.
A Staphylococcus aureus suspension was inoculated by 0.2 mL each in separate several portions on each test piece. Immediately after the inoculation, 20 mL of a saline for washing out was added to some vials for washing out Staphylococcus aureus cells, and then a viable cell count was measured. The rest of the vials without washing-out was cultured at 37° C.±2° C. for 18 to 24 hours. After the cultivation, 20 mL of a saline for washing out was added to each vial for washing out Staphylococcus aureus cells, and then a viable cell count was measured. In accordance with the formula (1), an antimicrobial activity value was calculated, and a sample having an antibacterial activity value of 2.0 or more was determined as having the antimicrobial activity.
A=(log Ct−log C0)−(log Tt−log T0) Formula (1)
A: antibacterial activity value log Ct: arithmetic average common logarithm of viable cell count in a control sample obtained after cultivation for 18 to 24 hours log C0: arithmetic average common logarithm of viable cell count in a control sample obtained immediately after inoculation log Tt: arithmetic average common logarithm of viable cell count in a test sample obtained after cultivation for 18 to 24 hours log T0: arithmetic average common logarithm of viable cell count in a test sample obtained immediately after inoculation

[4] = EOG Sterilization (20%, 4 hours, 55° C.)
[5] = 0.125% by mass on standard cloth
[6] = 1.25% by mass on standard cloth

For protamine hydrochloride, which “wound healing accelerating effect (area ratio of the wound)” value ([1]; hydrochloride) is on record?
The value was “exhibit a wound healing accelerating effect; also recorded: an effect of accelerating wound healing was observed”.

And the “Antibacterial Activity Value” [2, 4]?
The value was at least 2.0.

What about the “Antibacterial Activity Value” ([2]; Not Treated) of the same compound?
The value was at least 2.0.

And the “Antibacterial Activity Value” ([2]; γ-ray Sterilization (30 kGy))?
The value was at least 2.0.

What about the “Antibacterial Activity Value” [3, 5] of the same compound?
The value was at least 2.0.

And the “Antibacterial Activity Value” [3, 6]?
The value was at least 2.0.

With O=S(=O)([O-])[O-].[Ag+].[Ag+] [Silver Sulfate, silver sulfate, reference compound] as the compound, how does the “wound healing accelerating effect (area ratio of the wound)” value [1] read?
Its value is “the wound healing accelerating effect was found in protamine hydrochloride and protamine sulfate alone”.

What about the “Antibacterial Activity Value” [3, 5] of the same compound?
The value was at least 2.0.

What about the “Antibacterial Activity Value” [3, 6] of the same compound?
Its value is at least 2.0.

How did the “wound healing accelerating effect (area ratio of the wound)” value [1] turn out when protamine sulfate was run?
Its value is “exhibit a wound healing accelerating effect; also recorded: an effect of accelerating wound healing was observed”.

What about the “Antibacterial Activity Value” [2, 4] of the same compound?
The value was at least 2.0.

What about the “Antibacterial Activity Value” ([2]; Not Treated) of the same compound?
The value was at least 2.0.

And the “Antibacterial Activity Value” ([2]; γ-ray Sterilization (30 kGy))?
The value was at least 2.0.

And the “Antibacterial Activity Value” [3, 5]?
The value was at least 2.0.

What about the “Antibacterial Activity Value” [3, 6] of the same compound?
The value was at least 2.0.

Source: patent US20200038479A1, “WOUND HEALING AGENT HAVING ANTIMICROBIAL ACTIVITY AND WOUND HEALING ACCELERATING ACTIVITY” (MARUHA NICHIRO CORPORATION, priority 2016, published 2020)
